This passage reports Kd results from PMC8642446 (Acta Pharmaceutica Sinica. B, 2021).

pKd: −log10 of the molar value.

This assay concerns the target T1, ICAT (inhibitor of β-catenin and T-cell factor; β-catenin-interacting protein 1) (Homo sapiens, UniProt Q9NSA3).
T1 sequence (Q9NSA3 1-81): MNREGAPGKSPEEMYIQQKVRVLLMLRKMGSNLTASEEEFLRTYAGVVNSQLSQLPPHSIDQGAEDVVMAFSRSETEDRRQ
As to the kind of experiment: MST with EGFP-ICAT in cell lysate. In kind it is binding.

By pKd is commonly meant the Kd on a negative log10 scale, so that one unit is a factor of ten. A higher pKd goes with a small Kd. Compound `CC1=CC(=O)[C@@H](O)[C@]2(C)[C@H]3[C@@H](O)[C@H](O)[C@]4(C)OC[C@@]35[C@@H](C[C@@H]12)OC(=O)[C@H](O)[C@]54O` [BD, Bruceine D] gave a negative logarithm of the Kd (pKd) of 4.48.
